Legend:
[1] = tested on: Plutella xylostella; test: Example B2: Plutella xylostella (diamond back moth), artificial diet, L2 larvae; format: in vivo; details: 120 h, application rate 200 ppm, 5 days after infestation, read-out: effect in at least one of the two categories (mortality or growth inhibition)
Method: Example B2: Plutella xylostella (Diamond Back Moth)
(§1) 24-well microtiter plates with artificial diet were treated with aqueous test solutions prepared from 10,000 ppm DMSO stock solutions by pipetting. After drying, the plates were infested with L2 larvae (10 to 15 per well). The samples were assessed for mortality and growth inhibition in comparison to untreated samples 5 days after infestation.

[2] = tested on: Diabrotica balteata; test: Example B3: Diabrotica balteata (corn root worm), maize sprouts, L2 larvae; format: in vivo; details: 96 h, application rate 200 ppm, 4 days after infestation, read-out: effect in at least one of the two categories (mortality or growth inhibition)
Method: Example B3: Diabrotica balteata (Corn Root Worm)
as §1, with “Maize sprouts, placed on an agar layer in 24-well” for “24-well”, “plates” for “plates with artificial diet”, “spraying.” for “pipetting.”, “(6” for “(10”, “10” for “15”, “4” for “5”

[3] = tested on: Spodoptera littoralis; test: Example B1: Spodoptera littoralis (Egyptian cotton leaf worm), cotton leaf disc spray, L1 larvae; format: in vivo; details: foliar, 72 h, application rate 200 ppm, 3 days after infestation, read-out: control (at least one of mortality, anti-feedant effect, growth inhibition)
Method: Example B1: Spodoptera littoralis (Egyptian Cotton Leaf Worm)
Cotton leaf discs were placed on agar in 24-well microtiter plates and sprayed with aqueous test solutions prepared from 10,000 ppm DMSO stock solutions. After drying, the leaf discs were infested with five L1 larvae. The samples were assessed for mortality, anti-feedant effect, and growth inhibition in comparison to untreated samples 3 days after infestation. Control of Spodoptera littoralis by a test sample is when at least one of mortality, anti-feedant effect, and growth inhibition is higher than the untreated sample.

[4] = tested on: Frankliniella occidentalis; test: Example B6: Frankliniella occidentalis (western flower thrips), sunflower leaf disc spray; format: in vivo; details: foliar, 168 h, application rate 200 ppm, 7 days after infestation, mixed ages
Method: Example B6: Frankliniella occidentalis (Western Flower Thrips)
(§2) Sunflower leaf discs were placed on agar in 24-well microtiter plates and sprayed with aqueous test solutions prepared from 10,000 DMSO stock solutions. After drying the leaf discs were infested with a Frankliniella population of mixed ages. The samples were assessed for mortality 7 days after infestation.

[5] = tested on: Thrips tabaci; test: Example B5: Thrips tabaci (onion thrips), sunflower leaf disc spray; format: in vivo; details: foliar, 144 h, application rate 200 ppm, 6 days after infestation, mixed ages
Method: Example B5: Thrips tabaci (Onion Thrips)
as §2, with “10,000 ppm” for “10,000”, “thrips” for “Frankliniella”, “6” for “7”

[6] = tested on: Euschistus heros; test: Example B4: Euschistus heros, soybean leaf spray, N-2 nymphs; format: in vivo; details: 120 h, application rate 200 ppm, 5 days after infestation, read-out: effect in at least one of the two categories (mortality or growth inhibition)
Method: Example B4: Euschistus heros
Soybean leaf on agar in 24-well microtiter plates were sprayed with aqueous test solutions prepared from 10,000 ppm DMSO stock solutions. After drying the leaf were infested with N-2 nymphs. The samples were assessed for growth inhibition in comparison to untreated samples 5 days after infestation.

In the case of `Cc1cccc(C)c1NC(=O)Nc1ncc2cc(-c3ncn(-c4ccc(OC(F)(F)F)cc4)n3)ccc2n1` [Compound P2.6, 1-(2,6-dimethylphenyl)-3-[6-[1-[4-(trifluoromethoxy)phenyl]-1,2,4-triazol-3-yl]quinazolin-2-yl]urea], the melting point is reported as 247 to 249 °C.
In the case of `CC(C)c1ccccc1NC(=S)Nc1ccc2cc(-c3ncn(-c4ccc(OC(F)(F)F)cc4)n3)ccc2n1` [Compound P1.4, 1-(2-isopropylphenyl)-3-[6-[1-[4-(trifluoromethoxy)phenyl]-1,2,4-triazol-3-yl]-2-quinolyl]thiourea], the percent control (mortality or growth inhibition) at 200 ppm [1] is reported as ≥ 80%, the percent effect (mortality or growth inhibition) at 200 ppm [2] is reported as ≥ 80% and the control at 200 ppm [3] is reported as ≥ 80%.
For `Cc1cccc(C)c1/N=C1/SCN1c1nc2ccc(-c3ncn(-c4ccc(OC(F)(F)F)cc4)n3)cc2s1` [Compound P2.15, N-(2,6-dimethylphenyl)-3-[6-[1-[4-(trifluoromethoxy)phenyl]-1,2,4-triazol-3-yl]-1,3-benzothiazol-2-yl]-1,3-thiazetidin-2-imine], the melting point was > 250 °C.
For `CC(C)c1ccccc1N1CS/C1=N\c1ccc2cc(-c3ncn(-c4ccc(OC(F)(F)F)cc4)n3)ccc2n1` [Compound P2.1, 3-(2-isopropylphenyl)-N-[6-[1-[4-(trifluoromethoxy)phenyl]-1,2,4-triazol-3-yl]-2-quinolyl]-1,3-thiazetidin-2-imine], the mortality at 200 ppm [4] was ≥ 80%, the percent control (mortality or growth inhibition) at 200 ppm [1] was ≥ 80% and the percent effect (mortality or growth inhibition) at 200 ppm [2] was ≥ 80%. The control at 200 ppm [3] was ≥ 80%.
For `Cc1cccc(C)c1N1CS/C1=N\c1ncc2cc(-c3ncn(-c4ccc(OC(F)(F)F)cc4)n3)ccc2n1` [Compound P2.8, 3-(2,6-dimethylphenyl)-N-[6-[1-[4-(trifluoromethoxy)phenyl]-1,2,4-triazol-3-yl]quinazolin-2-yl]-1,3-thiazetidin-2-imine], the melting point was 227 to 229 °C.
In the case of `Cc1cccc(C)c1N1CS/C1=N\c1cnc2cc(-c3ncn(-c4ccc(OC(F)(F)F)cc4)n3)ccc2n1` [Compound P2.12, 3-(2,6-dimethylphenyl)-N-[6-[1-[4-(trifluoromethoxy)phenyl]-1,2,4-triazol-3-yl]quinoxalin-2-yl]-1,3-thiazetidin-2-imine], the mortality at 200 ppm [4] is reported as ≥ 80% and the control at 200 ppm [3] is reported as ≥ 80%.
In the case of `CC(C)c1ccccc1/N=C1/SCC(=O)N1c1ccc2cc(-c3ncn(-c4ccc(OC(F)(F)F)cc4)n3)ccc2n1` [Compound P2.4, (2E)-2-(2-isopropylphenyl)imino-3-[6-[1-[4-(trifluoromethoxy)phenyl]-1,2,4-triazol-3-yl]-2-quinolyl]thiazolidin-4-one], the mortality at 200 ppm [4] is reported as ≥ 80%, the percent control (mortality or growth inhibition) at 200 ppm [1] is reported as ≥ 80% and the percent effect (mortality or growth inhibition) at 200 ppm [2] is reported as ≥ 80%. The mortality at 200 ppm [5] was ≥ 80%, the percent effect (mortality or growth inhibition) at 200 ppm [6] was ≥ 80% and the control at 200 ppm [3] was ≥ 80%.
With `Cc1cccc(C)c1NC(=S)Nc1nc2ccc(-c3ncn(-c4ccc(OC(F)(F)F)cc4)n3)cc2s1` [Compound P2.17, 1-(2,6-dimethylphenyl)-3-[6-[1-[4-(trifluoromethoxy)phenyl]-1,2,4-triazol-3-yl]-1,3-benzothiazol-2-yl]thiourea] the percent control (mortality or growth inhibition) at 200 ppm [1] was ≥ 80%, the percent effect (mortality or growth inhibition) at 200 ppm [2] was ≥ 80% and the percent effect (mortality or growth inhibition) at 200 ppm [6] was ≥ 80%. The control at 200 ppm [3] was ≥ 80%.
For `Cc1cs/c(=N\c2ccc3cc(-c4ncn(-c5ccc(OC(F)(F)F)cc5)n4)ccc3n2)n1-c1ccccc1C(C)C` [Compound P2.2, 3-(2-isopropylphenyl)-4-methyl-N-[6-[1-[4-(trifluoromethoxy)phenyl]-1,2,4-triazol-3-yl]-2-quinolyl]thiazol-2-imine], the mortality at 200 ppm [4] was ≥ 80%, the percent control (mortality or growth inhibition) at 200 ppm [1] was ≥ 80% and the percent effect (mortality or growth inhibition) at 200 ppm [2] was ≥ 80%. The control at 200 ppm [3] was ≥ 80%.
With `Cc1cccc(C)c1NC(=S)Nc1cnc2cc(-c3ncn(-c4ccc(OC(F)(F)F)cc4)n3)ccc2n1` [Compound P2.11, 1-(2,6-dimethylphenyl)-3-[6-[1-[4-(trifluoromethoxy)phenyl]-1,2,4-triazol-3-yl]quinoxalin-2-yl]thiourea] the percent control (mortality or growth inhibition) at 200 ppm [1] was ≥ 80%, the percent effect (mortality or growth inhibition) at 200 ppm [2] was ≥ 80% and the control at 200 ppm [3] was ≥ 80%.
In the case of `Cc1cccc(C)c1NC(=S)Nc1ccc2cc(-c3ncn(-c4ccc(OC(F)(F)F)cc4)n3)ccc2c1` [Compound P2.13, 1-(2,6-dimethylphenyl)-3-[6-[1-[4-(trifluoromethoxy)phenyl]-1,2,4-triazol-3-yl]-2-naphthyl]thiourea], the percent control (mortality or growth inhibition) at 200 ppm [1] is reported as ≥ 80%, the percent effect (mortality or growth inhibition) at 200 ppm [2] is reported as ≥ 80% and the control at 200 ppm [3] is reported as ≥ 80%.
With `Cc1cccc(C)c1N1C(=O)CS/C1=N\c1ncc2cc(-c3ncn(-c4ccc(OC(F)(F)F)cc4)n3)ccc2n1` [Compound P2.9, (2Z)-3-(2,6-dimethylphenyl)-2-[6-[1-[4-(trifluoromethoxy)phenyl]-1,2,4-triazol-3-yl]quinazolin-2-yl]imino-thiazolidin-4-one] the percent control (mortality or growth inhibition) at 200 ppm [1] was ≥ 80%, the percent effect (mortality or growth inhibition) at 200 ppm [2] was ≥ 80% and the control at 200 ppm [3] was ≥ 80%.
In the case of `CC(C)c1ccccc1N1C(=O)CS/C1=N\c1ccc2cc(-c3ncn(-c4ccc(OC(F)(F)F)cc4)n3)ccc2n1` [Compound P2.3, (2Z)-3-(2-isopropylphenyl)-2-[[6-[1-[4-(trifluoromethoxy)phenyl]-1,2,4-triazol-3-yl]-2-quinolyl]imino]thiazolidin-4-one], the mortality at 200 ppm [4] is reported as ≥ 80%, the percent control (mortality or growth inhibition) at 200 ppm [1] is reported as ≥ 80% and the percent effect (mortality or growth inhibition) at 200 ppm [2] is reported as ≥ 80%. The control at 200 ppm [3] was ≥ 80%.
In the case of `CC(C)c1ccccc1NC(=O)Nc1ccc2cc(-c3ncn(-c4ccc(OC(F)(F)F)cc4)n3)ccc2n1` [Compound P1.3, 1-(2-isopropylphenyl)-3-[6-[1-[4-(trifluoromethoxy)phenyl]-1,2,4-triazol-3-yl]-2-quinolyl]urea], the percent control (mortality or growth inhibition) at 200 ppm [1] is reported as ≥ 80% and the percent effect (mortality or growth inhibition) at 200 ppm [2] is reported as ≥ 80%.
For `Cc1cccc(C)c1N1/C(=N/c2ncc3cc(-c4ncn(-c5ccc(OC(F)(F)F)cc5)n4)ccc3n2)SCC1(C)O` (stereo not shown) [Compound P2.7, (2Z)-3-(2,6-dimethylphenyl)-4-methyl-2-[6-[1-[4-(trifluoromethoxy)phenyl]-1,2,4-triazol-3-yl]quinazolin-2-yl]imino-thiazolidin-4-ol], the percent effect (mortality or growth inhibition) at 200 ppm [2] was ≥ 80% and the percent effect (mortality or growth inhibition) at 200 ppm [6] was ≥ 80%.
In the case of `Cc1cccc(C)c1N1CS/C1=N\c1nc2ccc(-c3ncn(-c4ccc(OC(F)(F)F)cc4)n3)cc2s1` [Compound P2.14, 3-(2,6-dimethylphenyl)-N-[6-[1-[4-(trifluoromethoxy)phenyl]-1,2,4-triazol-3-yl]-1,3-benzothiazol-2-yl]-1,3-thiazetidin-2-imine], the percent control (mortality or growth inhibition) at 200 ppm [1] is reported as ≥ 80%, the mortality at 200 ppm [5] is reported as ≥ 80% and the control at 200 ppm [3] is reported as ≥ 80%.
